Measurements taken from publication PMC4792962, “A unified mechanism for proteolysis and autocatalytic activation in the 20S proteasome” (Nature Communications, 2016).
Positions count from the first letter of the chain named.

Columns and labels:
[1] = molecular target: T1, yeast 20S proteasome core particle (yCP), β5 active site (ChT-L activity) (Saccharomyces cerevisiae, UniProt P23724+P30656, P30656:T76S); assay: fluorescence inhibition assay, Suc-LLVY-AMC; assay type: biochemical
T1 construct: gene PRE2; native 20S core particle purified from yeast (α7β7β7α7, 28 subunits), untagged; β5 mature after autocatalytic propeptide removal; in 'pp trans' mutants the β5 propeptide is expressed separately; with Proteasome subunit beta type-1; Proteasome subunit beta type-2; Proteasome subunit beta type-3; Proteasome subunit beta type-4; Proteasome subunit beta type-7; Proteasome subunit alpha type-1; Proteasome subunit alpha type-2; Proteasome subunit alpha type-3; Proteasome subunit alpha type-4; Proteasome subunit alpha type-5; Proteasome subunit alpha type-6; Probable proteasome subunit alpha type-7
T1 sequence (P30656 76-287 T76S): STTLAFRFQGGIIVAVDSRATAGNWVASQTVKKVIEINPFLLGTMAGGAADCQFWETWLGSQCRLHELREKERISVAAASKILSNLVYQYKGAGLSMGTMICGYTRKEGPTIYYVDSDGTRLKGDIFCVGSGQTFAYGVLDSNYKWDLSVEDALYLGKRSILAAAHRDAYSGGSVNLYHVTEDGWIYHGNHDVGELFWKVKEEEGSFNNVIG
T1 sequence (P23724 20-241): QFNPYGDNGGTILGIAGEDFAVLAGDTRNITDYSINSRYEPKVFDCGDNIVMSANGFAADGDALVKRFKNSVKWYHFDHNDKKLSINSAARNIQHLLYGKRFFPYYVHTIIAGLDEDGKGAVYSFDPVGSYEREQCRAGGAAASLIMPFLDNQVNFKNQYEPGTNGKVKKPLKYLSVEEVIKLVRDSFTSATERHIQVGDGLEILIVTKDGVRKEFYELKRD

[2] = molecular target: T2, yeast 20S proteasome core particle (yCP), β5 active site (ChT-L activity) (Saccharomyces cerevisiae, UniProt P23724+P30656); assay: fluorescence inhibition assay, Suc-LLVY-AMC; assay type: biochemical
T2 construct: gene PRE2; native 20S core particle purified from yeast (α7β7β7α7, 28 subunits), untagged; β5 mature after autocatalytic propeptide removal; in 'pp trans' mutants the β5 propeptide is expressed separately; with Proteasome subunit beta type-1; Proteasome subunit beta type-2; Proteasome subunit beta type-3; Proteasome subunit beta type-4; Proteasome subunit beta type-7; Proteasome subunit alpha type-1; Proteasome subunit alpha type-2; Proteasome subunit alpha type-3; Proteasome subunit alpha type-4; Proteasome subunit alpha type-5; Proteasome subunit alpha type-6; Probable proteasome subunit alpha type-7
T2 sequence (P30656 76-287): T1 sequence (P30656 76-287 T76S) with S1T
T2 sequence (P23724 20-241): T1 sequence (P23724 20-241)

[3] = molecular target: T3, yeast 20S proteasome core particle (yCP), β5 active site (ChT-L activity) (Saccharomyces cerevisiae, UniProt P23724+P30656, P30656:K108A); assay: X-ray crystal structure; assay type: binding; conditions: propeptide expressed in trans, covalent
T3 construct: gene PRE2; native 20S core particle purified from yeast (α7β7β7α7, 28 subunits), untagged; β5 mature after autocatalytic propeptide removal; in 'pp trans' mutants the β5 propeptide is expressed separately; with Proteasome subunit beta type-1; Proteasome subunit beta type-2; Proteasome subunit beta type-3; Proteasome subunit beta type-4; Proteasome subunit beta type-7; Proteasome subunit alpha type-1; Proteasome subunit alpha type-2; Proteasome subunit alpha type-3; Proteasome subunit alpha type-4; Proteasome subunit alpha type-5; Proteasome subunit alpha type-6; Probable proteasome subunit alpha type-7
T3 sequence (P30656 76-287 K108A): T1 sequence (P30656 76-287 T76S) with S1T, K33A
T3 sequence (P23724 20-241): T1 sequence (P23724 20-241)

[4] = molecular target: T4, yeast 20S proteasome core particle (yCP), β5 active site (ChT-L activity) (Saccharomyces cerevisiae, UniProt P23724+P30656, P30656:D243N); assay: X-ray crystal structure; assay type: binding; conditions: crystal soak; covalent (morpholine ring with Thr1)
T4 construct: gene PRE2; native 20S core particle purified from yeast (α7β7β7α7, 28 subunits), untagged; β5 mature after autocatalytic propeptide removal; in 'pp trans' mutants the β5 propeptide is expressed separately; with Proteasome subunit beta type-1; Proteasome subunit beta type-2; Proteasome subunit beta type-3; Proteasome subunit beta type-4; Proteasome subunit beta type-7; Proteasome subunit alpha type-1; Proteasome subunit alpha type-2; Proteasome subunit alpha type-3; Proteasome subunit alpha type-4; Proteasome subunit alpha type-5; Proteasome subunit alpha type-6; Probable proteasome subunit alpha type-7
T4 sequence (P30656 76-287 D243N): T1 sequence (P30656 76-287 T76S) with S1T, D168N
T4 sequence (P23724 20-241): T1 sequence (P23724 20-241)

Compound | IC50 [1] [nM] | IC50 [2] [nM] | X-ray crystal structure [3] | X-ray crystal structure [4]
CC(C)C[C@H](NC(=O)[C@H](Cc1ccccc1)NC(=O)c1cnccn1)B(O)O [bortezomib] | 649 ± 176 | 174 ± 29 |  | 
CC(C)C[C@H](NC(=O)[C@H](CCc1ccccc1)NC(=O)CN1CCOCC1)C(=O)N[C@@H](Cc1ccccc1)C(=O)N[C@@H](CC(C)C)C(=O)[C@@]1(C)CO1 [carfilzomib] |  |  | crystal structure of the β5-K33A pp trans mutant in complex with carfilzomib | Soaking the β5-D166N crystals with carfilzomib and MG132 resulted in covalent modification of Thr1
